Experimental data as given in US20160045505A1, “COMPOUNDS AND COMPOSITIONS FOR THE TREATMENT OF PARASITIC DISEASES” (NOVARTIS AG, priority 2013, published 2016).
Where two headings read alike, the source gives them in different places.

Legend:
[1] = tested on: Leishmania donovani axenic amastigote parasites; assay: Leishmania donovani axenic amastigote proliferation assay (Cell TiterGlo luminescence, 2 day incubation); format: cell-based; settings: Leishmania donovani, read-out: L. donovani amastigotes EC50
[2] = tested on: L. donovani HU3 strain in mouse peritoneal macrophages; assay: Assay for proliferation of Leishmania parasites in infected mouse peritoneal macrophages (SybrGreen staining, high-content imaging, 5 days); format: cell-based, Leishmania donovani; settings: Leishmania donovani, Peritoneal macrophage, L. donovani in mouse peritoneal macrophages, read-out: L. donovani Macrophage EC50
[3] = tested on: Trypanosoma brucei Lister 427 strain, bloodstream form; assay: Assay for proliferation of kinetoplastid parasite Trypanosoma brucei (Cell Titer Glo, 48 hours); format: cell-based; settings: Trypanosoma brucei, T. brucei Lister 427 bloodstream form, read-out: T. brucei EC50
Description: Assay for Proliferation of Kinetoplastid Parasite Trypanosoma brucei.
The proliferation is quantified by the addition of Cell Titer Glo (Promega®) a luminescent cell viability assay that measures the number of viable cells in culture based on the quantification of cellular ATP amount, which is an indicator of metabolically active cells.
The following assay illustrates the invention without in any way limiting the scope of the invention. This parasite proliferation assay measures the increase in parasite growth using an assay that measures ATP activity, Cell Titer Glo®.
Trypanosoma brucei Lister 427 strain is grown in HMI-9 Trypanosome media for T. brucei bloodstream form. 30 μl of HMI-9 media is dispensed into 384 well assay plates. 200 nl of compounds of the invention (in DMSO), including anti-trypanosome controls (Pentamidine and suramin), are then transferred into the assay plates, as well as DMSO alone to serve as a negative control for inhibition. Then 25 μl of a suspension of T. brucei culture in HMI-9 media is dispensed into the assay plates. The final concentration of parasites in culture corresponds to 1.7% of 0.5 uM ATP activity with Cell Titer Glo® in HMI-9 media. The plates are placed in a 37° C. incubator for 48 hours in an atmospheric environment containing 5% CO2. 40 μl of Cell Titer Glo® is dispensed into the plates. The plates are then read for luminescence. The percentage inhibition of 50%, EC50, is calculated for each compound.

[4] = axenic amastigotes, inhibition of proliferation

| Structure (SMILES) | EC50 [1, 4] [nM] | EC50 ([2]; inhibition of proliferation) [nM] | EC50 ([3]; inhibition of proliferation) [nM] | EC50 ([1]; L. donovani axenic amastigotes) [nM] | EC50 [2] [nM] | EC50 [3] [nM] |
| --- | --- | --- | --- | --- | --- | --- |
| O=C(Nc1ccc(Cl)c(-c2cn3cc(-c4ccsc4)cnc3n2)c1)N1CCCC1 [Compound 28] | 28 | 129 | 9.36 | – | – | – |
| Cc1nc(C)c(C(=O)Nc2ccc(F)c(-c3cn4cc(-c5ccc(CCO)cn5)cnc4n3)c2)o1 [Compound 350] | 16 | 128 | 53 | – | – | – |
| CC(C)Nc1cnc2nc(-c3cc(NC(=O)N4CC(F)C4)ccc3F)cn2c1 [Compound 592] | – | – | – | 145 | 428 | 53 |
| Cc1nc(C)c(C(=O)Nc2ccc(F)c(-c3cn4cc(-c5ccc(CCO)cn5)cnc4n3)c2)o1 [Compound 585, N-(4-fluoro-3-(6-(5-(2-hydroxyethyl)pyridin-2-yl)imidazo[1,2-a]pyrimidin-2-yl)phenyl)-2,4-dimethyloxazole-5-carboxamide] | – | – | – | – | – | 414 |
| CCN(CC)C(=O)Nc1cccc(-c2cn3cc(NC(=O)OC(C)C)cnc3n2)c1 [Compound 16] | > 25000 | 14000 | 1640 | – | – | – |
| CN(C)c1cnc2nc(-c3cc(NC(=O)N4CC(F)C4)ccc3F)cn2c1 [Compound 593] | – | – | – | 255 | 160 | 54 |
| CC(=O)Nc1ccc(F)c(-c2cn3cc(N)cnc3n2)c1 [Compound 569] | – | – | – | > 25000 | – | > 50000 |
| CC(C)(C)OC(=O)Nc1cnc2nc(-c3cccc(NC(=O)N4CCCC4)c3F)cn2c1 [Compound 579] | – | – | – | > 25000 | > 50000 | 36200 |
| CC(=O)Nc1ccc(F)c(-c2cn3cc(NC(=O)OC(C)(C)C)cnc3n2)c1 [Compound 529, tert-butyl (2-(5-acetamido-2-fluorophenyl)imidazo[1,2-a]pyrimidin-6-yl)carbamate] | – | – | – | 7230 | > 50000 | 3260 |
| CC(C)OC(=O)Nc1cnc2nc(-c3cccc(NC(=O)c4ccc(Cl)o4)c3)cn2c1 [Compound 18] | 410 | 172 | 56.8 | – | – | – |
| Cc1cnc(C(=O)Nc2cccc(-c3cn4cc(NC(=O)OC(C)C)cnc4n3)c2)s1 [Compound 41] | – | – | 4400 | – | – | – |
| CCOC(=O)Nc1cccc(-c2cn3cc(NC(=O)OC(C)C)cnc3n2)c1 [Compound 10] | 2980 | 2360 | 231 | – | – | – |
| CC(C)OC(=O)Nc1cnc2nc(-c3cc(NC(=O)c4ccco4)ccc3F)cn2c1 [Compound 12, isopropyl (2-(2-fluoro-5-(furan-2-carboxamido)phenyl)imidazo[1,2-a]pyrimidin-6-yl)carbamate] | – | – | 65.6 | – | – | – |
| Cc1nc(C)c(C(=O)Nc2ccc(F)c(-c3cn4cc(NC(=O)c5nccn5C)cnc4n3)c2)o1 [Compound 174] | – | – | 483 | – | – | – |
| O=C(Nc1cnc2nc(-c3ccc(F)c(NC(=O)N4CCCC4)c3)cn2c1)OCc1ccccc1 [Compound 513, Benzyl (2-(4-fluoro-3-(pyrrolidine-1-carboxamido)phenyl)imidazo[1,2-a]pyrimidin-6-yl)carbamate] | – | – | – | 958 | 1580 | 426 |
| O=C(Nc1ccc(Cl)c(-c2nc3ncc(-c4ccccc4)cn3c2F)c1)N1CCCC1 [Compound 39] | > 3400 | 180 | 74.5 | – | – | – |
| CC(C)OC(=O)Nc1cccc(-c2cn3cc(NC(=O)OC(C)C)cnc3n2)c1 [Compound 21] | 1970 | 1050 | 187 | – | – | – |
| Cc1cccnc1-c1cnc2nc(-c3cc(NC(=O)N4CC(F)(F)C4)ccc3F)cn2c1 [Compound 403] | – | – | – | 63 | 181 | 55 |

| Structure (SMILES) | EC50 [1, 4] [nM] | EC50 ([2]; inhibition of proliferation) [nM] | EC50 ([3]; inhibition of proliferation) [nM] | EC50 ([1]; L. donovani axenic amastigotes) [nM] | EC50 [2] [nM] | EC50 [3] [nM] |
| --- | --- | --- | --- | --- | --- | --- |
| CC(C)(C)OC(=O)Nc1cnc2nc(-c3cc(NC=O)ccc3F)cn2c1 [Compound 532, tert-butyl (2-(2-fluoro-5-formamidophenyl)imidazo[1,2-a]pyrimidin-6-yl)carbamate] | – | – | – | 13900 | > 50000 | 17800 |
| O=C(Nc1ccc(F)c(-c2cn3cc(NC(=O)C(F)(F)F)cnc3n2)c1)N1CCCC1 [Compound 566, N-(4-fluoro-3-(6-(2,2,2-trifluoroacetamido)imidazo[1,2-a]pyrimidin-2-yl)phenyl)pyrrolidine-1-carboxamide] | – | – | – | 1140 | 12000 | 212 |
| CNc1ccc(-c2cnc3nc(-c4cc(NC(=O)c5ccc(C)o5)ccc4Cl)cn3c2)cc1 [Compound 33, N-(4-chloro-3-(6-(4-(methylamino)phenyl)imidazo[1,2-a]pyrimidin-2-yl)phenyl)-5-methylfuran-2-carboxamide] | 370 | 660 | 188 | – | – | – |
| CNc1ccc(-c2cnc3nc(-c4cc(NC(=O)N5CCCC5)ccc4Cl)cn3c2)cc1 [Compound 26, N-(4-chloro-3-(6-(4-(methylamino)phenyl)imidazo[1,2-a]pyrimidin-2-yl)phenyl)pyrrolidine-1-carboxamide] | 57 | 104 | 23.3 | – | – | – |
| CC(C)OC(=O)Nc1cnc2nc(-c3cc(NC(=O)N4CC(Cl)C4)ccc3F)cn2c1 [Compound 291] | 390 | 968 | 206 | – | – | – |
| CC(C)OC(=O)Nc1cnc2nc(-c3cc(NC(=O)c4cncn4C)ccc3F)cn2c1 [Compound 96] | > 15800 | 42200 | 1480 | – | – | – |
| CC(C)OC(=O)Nc1cnc2nc(-c3cccc(NC(=O)c4nccs4)c3)cn2c1 [Compound 11] | 3800 | 5000 | 659 | – | – | – |
| Cc1ccc(C(=O)Nc2ccc(Cl)c(-c3cn4cc(-c5ccsc5)cnc4n3)c2)o1 [Compound 30] | 101 | 172 | 86.8 | – | – | – |
| O=C(Nc1ccc(Cl)c(-c2cn3cc(Cl)cnc3n2)c1)c1ccco1 [Compound 38] | 5900 | 15600 | 1800 | – | – | – |
| O=C(Nc1ccc(F)c(-c2cn3cc(Br)cnc3n2)c1)c1ccccc1 [Compound 197] | 2490 | – | 491 | – | – | – |
| O=C(Nc1ccc(F)c(-c2cn3cc(Br)cnc3n2)c1)C1CCCC1 [Compound 196, N-(3-(6-bromoimidazo[1,2-a]pyrimidin-2-yl)-4-fluorophenyl)cyclopentanecarboxamide] | 6520 | – | 1860 | – | – | – |
| Nc1cnc2nc(-c3cccc(NC(=O)N4CCCC4)c3F)cn2c1 [Compound 580] | – | – | – | > 25000 | – | > 50000 |
| CC(C)OC(=O)Nc1ccc(F)c(-c2cn3cc(NC(=O)OC(C)C)cnc3n2)c1 [Compound 40] | – | – | 185 | – | – | – |
| CC(C)OC(=O)Nc1cnc2nc(-c3cccc(NC(=O)C4CC4)c3)cn2c1 [Compound 42] | – | – | 1700 | – | – | – |
| O=CNc1ccc(F)c(-c2cn3cc(Br)cnc3n2)c1 [Compound 531, N-(3-(6-bromoimidazo[1,2-a]pyrimidin-2-yl)-4-fluorophenyl)formamide] | – | – | – | > 25000 | – | > 50000 |
| O=CNc1cnc2nc(-c3cc(NC(=O)N4CCCC4)ccc3F)cn2c1 [Compound 533, N-(4-fluoro-3-(6-formamidoimidazo[1,2-a]pyrimidin-2-yl)phenyl)pyrrolidine-1-carboxamide] | – | – | – | – | – | 1540 |
| O=C(Nc1ccc(F)c(-c2cn3cc(Br)cnc3n2)c1)N1CCOCC1 [Compound 515] | – | – | – | 7370 | – | 13500 |
| Nc1cnc2nc(-c3ccc(F)c(NC(=O)N4CCCC4)c3)cn2c1 [Compound 568, N-(5-(6-aminoimidazo[1,2-a]pyrimidin-2-yl)-2-fluorophenyl)pyrrolidine-1-carboxamide] | – | – | – | – | – | 9840 |
